The record followed here is patent US9556158B2, “Fungicidal 3-[(pyridin-2-ylmethoxyimino)(phenyl)methyl]-2-substituted-1,2,4-oxadiazol-5(2H)-one derivatives” (BAYER INTELLECTUAL PROPERTY GMBH, priority 2011, dated 2017).

Each structure is given as a SMILES string.

In one data set the test system is Phytophthora infestans. The experiment in a line: whole plant or invertebrate. The class given is in vivo. Particulars: in Solanum lycopersicum, 120 h, read-out: % efficacy.
For data set [1] the following is noted: pH 2.7, LogP, HPLC on reversed phase columns, pH 2.7, 0.1% formic acid in water / acetonitrile gradient.
A further data set deals with Plasmopara viticola. In words: Example I: in vivo preventive test on Plasmopara viticola (grapevine). Particulars: 144 h, 10 ppm of active ingredient, preventive spray on young plants, evaluated 6 days after inoculation, read-out: Eff. %. Here is the method: In Vivo Preventive Test on Plasmopara viticola (Grapevine)
To produce a suitable preparation of active compound, 1 part by weight of active compound is mixed with the stated amounts of solvent and emulsifier, and the concentrate is diluted with water to the desired concentration.
To test for preventive activity, young plants are sprayed with the preparation of active compound at the stated rate of application. After the spray coating has dried on, the plants are inoculated with an aqueous spore suspension of Plasmopara viticola and then remain for 1 day in an incubation cabinet at approximately 20° C. and a relative atmospheric humidity of 100%. The plant is subsequently placed for 4 days in a greenhouse at approximately 21° C. and a relative atmospheric humidity of approximately 90%. The plants are then misted and placed for 1 day in an incubation cabinet.
The test is evaluated 6 days after the inoculation. 0% means an efficacy which corresponds to that of the untreated control, while an efficacy of 100% means that no disease is observed.

For `Cc1cccc(C(=NOCc2cccc(NC(=O)c3ccccc3)n2)c2nc(=O)on2C)c1` [Example 82], in the data set with Phytophthora infestans, the pest or weed control at 500 ppm amounted to 75%. Moreover, the chromatographic logP – broadly, lipophilicity estimated from chromatographic retention – in data set [1] was 3.21.

For `Cc1cccc(C(=NOCc2cccc(NC(=O)c3ccc(F)cc3)n2)c2nc(=O)on2C)c1` [Example 87], the pest or weed control at 500 ppm with Phytophthora infestans was determined as 75%. For the same molecule, the chromatographic logP in data set [1] was 3.33.

Consider `Cc1cccc(C(=NOCc2cccc(N)n2)c2nc(=O)on2C)c1` [Example 31], for which the pest or weed control at 500 ppm with Phytophthora infestans was found to be 93%. In data set [1], this molecule had a chromatographic logP of 1.17.

Regarding `COc1cccc(C(=O)Nc2cccc(CON=C(c3cccc(OC)c3)c3nc(=O)o[nH]3)n2)c1` [Example 63], the pest or weed control at 500 ppm in the data set on Phytophthora infestans amounted to 80%. The same molecule displayed a chromatographic logP in data set [1] of 3.06.

As for `CCCCCOC(=O)Nc1cccc(CON=C(c2ccccc2)c2nc(=O)on2C)n1` [Example 13], in the data set with Phytophthora infestans, the pest or weed control at 500 ppm is 100%. The pest or weed control at 10 ppm with Plasmopara viticola was 95%. Further, in data set [1], the chromatographic logP is 3.81.

Turning to `O=C(Cc1ccccc1)Nc1cccc(CON=C(c2cccc(F)c2)c2nc(=O)o[nH]2)n1` [Example 76], the pest or weed control at 500 ppm in the data set with Phytophthora infestans turned out to be 90%. In data set [1], this molecule yielded a chromatographic logP of 3.04.

Consider `COc1ccc(CC(=O)Nc2cccc(CON=C(c3cccc(F)c3)c3nc(=O)o[nH]3)n2)cc1` [Example 73], for which the pest or weed control at 500 ppm in the data set with Phytophthora infestans came out at 95%. Moreover, the chromatographic logP in data set [1] came to 3.

Take `Cn1oc(=O)nc1C(=NOCc1cccc(NC(=O)OC2CCCCC2)n1)c1cccc(F)c1` [Example 33]: the pest or weed control at 500 ppm in the data set with Phytophthora infestans came out at 100%. This molecule displayed a chromatographic logP in data set [1] of 3.92.

Take `CCCCOC(=O)Nc1cccc(CON=C(c2cccc(OC)c2)c2nc(=O)o[nH]2)n1` [Example 66]: the pest or weed control at 500 ppm in the data set on Phytophthora infestans came to 70%. Besides, the chromatographic logP in data set [1] is 3.42.

For `COc1cccc(C(=NOCc2cccc(NC(=O)Cc3cccc(F)c3)n2)c2nc(=O)on2C)c1` [Example 105], in the data set with Phytophthora infestans, the pest or weed control at 500 ppm stood at 75%. Besides, the chromatographic logP in data set [1] is 3.09.

As to `COc1cccc(C(=NOCc2cccc(NC(=O)OC3CCCCC3)n2)c2nc(=O)on2C)c1` [Example 28], the pest or weed control at 500 ppm with Phytophthora infestans was 78%. Moreover, the chromatographic logP in data set [1] turned out to be 3.85.

With `COc1cccc(C(=NOCc2cccc(NC(=O)c3ccc(C)cc3)n2)c2nc(=O)on2C)c1` [Example 106], the pest or weed control at 500 ppm in the data set on Phytophthora infestans was 90%. Besides, in data set [1], the chromatographic logP came out at 3.27.

Turning to `Cc1cccc(C(=NOCc2cccc(NC(=O)OC(C)(C)C)n2)c2nc(=O)on2C)c1` [Example 21], the pest or weed control at 500 ppm in the data set on Phytophthora infestans came to 100%. The molecule further had a chromatographic logP in data set [1] of 3.65.

As for `CCCCOC(=S)Nc1cccc(CON=C(c2ccccc2)c2nc(=O)on2C)n1` [Example 43], the pest or weed control at 500 ppm with Phytophthora infestans came to 99%. Further, the chromatographic logP in data set [1] is 3.89.

Consider `Cc1cccc(C(=NOCc2cccc(NC(=O)C(C)Oc3ccccc3)n2)c2nc(=O)on2C)c1` (stereo not shown) [Example 103], for which the pest or weed control at 500 ppm in the data set with Phytophthora infestans was 80%. Further, the chromatographic logP in data set [1] is 3.64.

Regarding `COc1ccc(CC(=O)Nc2cccc(CON=C(c3cccc(OC)c3)c3nc(=O)o[nH]3)n2)cc1` [Example 48], the pest or weed control at 500 ppm in the data set on Phytophthora infestans is 100%. The chromatographic logP in data set [1] is 2.98.

In the case of `Cc1cccc(C(=NOCc2cccc(NC(=O)CC(C)C)n2)c2nc(=O)on2C)c1` [Example 85], the pest or weed control at 500 ppm in the data set with Phytophthora infestans is 100%. Also, the chromatographic logP in data set [1] came out at 3.13.

Turning to `COc1cccc(C(=O)Nc2cccc(CON=C(c3cccc(F)c3)c3nc(=O)o[nH]3)n2)c1` [Example 64], the pest or weed control at 500 ppm in the data set on Phytophthora infestans was determined as 85%. In data set [1], this molecule had a chromatographic logP of 3.13.

As to `CCCCOC(=O)Nc1cccc(CON=C(c2cccc(F)c2)c2nc(=O)o[nH]2)n1` [Example 71], the pest or weed control at 500 ppm with Phytophthora infestans stood at 95%. The molecule also registered a chromatographic logP in data set [1] of 3.48.

Take `CCCCCCC(=O)Nc1cccc(CON=C(c2cccc(C)c2)c2nc(=O)on2C)n1` [Example 78]: in the data set with Phytophthora infestans, the pest or weed control at 500 ppm was 70%. The molecule also returned a chromatographic logP in data set [1] of 3.96.

Take `Cc1cccc(C(=NOCc2cccc(NC(=O)C(C)(C)C)n2)c2nc(=O)on2C)c1` [Example 57]: the pest or weed control at 500 ppm in the data set on Phytophthora infestans was determined as 75%. This molecule also showed a chromatographic logP in data set [1] of 3.17.

For `CC(Oc1ccccc1)C(=O)Nc1cccc(CON=C(c2cccc(F)c2)c2nc(=O)on2C)n1` (stereo not shown) [Example 97], the pest or weed control at 500 ppm in the data set with Phytophthora infestans is 70%. The molecule also returned a chromatographic logP in data set [1] of 3.44.

With `CCCCCOC(=O)Nc1cccc(CON=C(c2cccc(OC)c2)c2nc(=O)on2C)n1` [Example 102], the pest or weed control at 500 ppm in the data set with Phytophthora infestans was 98%. The chromatographic logP in data set [1] was 3.83.

On to `CCCCC(=O)Nc1cccc(CON=C(c2cccc(C)c2)c2nc(=O)on2C)n1` [Example 60], for which the pest or weed control at 500 ppm in the data set with Phytophthora infestans was found to be 89%. In addition, the chromatographic logP in data set [1] turned out to be 3.19.

For `Cc1ccc(C(=O)Nc2cccc(CON=C(c3cccc(C)c3)c3nc(=O)on3C)n2)cc1` [Example 80], the pest or weed control at 500 ppm in the data set with Phytophthora infestans was 80%. In data set [1], this molecule yielded a chromatographic logP of 3.53.

With `Cc1cccc(C(=NOCc2cccc(NC(=O)OC3CCCCC3)n2)c2nc(=O)on2C)c1` [Example 30], in the data set with Phytophthora infestans, the pest or weed control at 500 ppm amounted to 78%. Moreover, the chromatographic logP in data set [1] is 4.11.

In the case of `CCCCCOC(=O)Nc1cccc(CON=C(c2cccc(F)c2)c2nc(=O)o[nH]2)n1` [Example 69], in the data set with Phytophthora infestans, the pest or weed control at 500 ppm worked out at 100%. Also, the chromatographic logP in data set [1] worked out at 3.89.

Take `COc1ccc(CC(=O)Nc2cccc(CON=C(c3cccc(C)c3)c3nc(=O)on3C)n2)cc1` [Example 100]: the pest or weed control at 500 ppm in the data set with Phytophthora infestans came out at 100%. Besides, the chromatographic logP in data set [1] stood at 3.19.

Regarding `CCCCSC(=S)Nc1cccc(CON=C(c2ccccc2)c2nc(=O)on2C)n1` [Example 38], the pest or weed control at 500 ppm in the data set on Phytophthora infestans amounted to 93%. For the same molecule, the chromatographic logP in data set [1] came to 4.15.

In the case of `CCCCC(=O)Nc1cccc(CON=C(c2cccc(F)c2)c2nc(=O)o[nH]2)n1` [Example 72], the pest or weed control at 500 ppm in the data set on Phytophthora infestans stood at 85%. For the same molecule, the chromatographic logP in data set [1] came out at 2.98.

`CCCCOC(=O)Nc1cccc(CON=C(c2cccc(C)c2)c2nc(=O)on2C)n1` [Example 58]: the pest or weed control at 500 ppm in the data set with Phytophthora infestans was determined as 75%. Also, in data set [1], the chromatographic logP amounted to 3.69.

On to `COc1cccc(C(=NOCc2cccc(NC(=O)OCc3ccccc3)n2)c2nc(=O)on2C)c1` [Example 104], for which the pest or weed control at 500 ppm in the data set with Phytophthora infestans came to 88%. The chromatographic logP in data set [1] amounted to 3.42.

Consider `CCCCCC(=O)Nc1cccc(CON=C(c2cccc(C)c2)c2nc(=O)on2C)n1` [Example 59], for which, in the data set with Phytophthora infestans, the pest or weed control at 500 ppm is 90%. In data set [1], this molecule registered a chromatographic logP of 3.58.

As for `CCn1oc(=O)nc1/C(=N\OCc1cccc(NC(=O)OC(C)(C)C)n1)c1ccccc1` [Example 40, tert-butyl {6-[({[(Z)-(2-ethyl-5-oxo-2,5-dihydro-1,2,4-oxadiazol-3-yl)(phenyl)methylene]amino}oxy)methyl]pyridin-2-yl}carbamate], the pest or weed control at 500 ppm in the data set with Phytophthora infestans is 73%. The molecule further returned a chromatographic logP in data set [1] of 3.58.

`C#CCC(C)OC(=O)Nc1cccc(CON=C(c2cccc(OC)c2)c2nc(=O)on2C)n1` (stereo not shown) [Example 94]: in the data set on Phytophthora infestans, the pest or weed control at 500 ppm stood at 85%. For the same molecule, in data set [1], the chromatographic logP was determined as 3.02.

For `Cn1oc(=O)nc1/C(=N\OCc1cccc(NCCC2CCCCC2)n1)c1ccccc1` [Example 3, 3-[(Z)-[({6-[(2-cyclohexylethyl)amino]pyridin-2-yl}methoxy)imino](phenyl)methyl]-2-methyl-1,2,4-oxadiazol-5(2H)-one], the pest or weed control at 10 ppm with Plasmopara viticola amounted to 93%. The chromatographic logP in data set [1] is 2.43.

In the case of `CCCCCOC(=O)Nc1cccc(CON=C(c2cccc(C)c2)c2nc(=O)on2C)n1` [Example 56], the pest or weed control at 500 ppm with Phytophthora infestans is 83%. This molecule showed a chromatographic logP in data set [1] of 4.11.

`CC#CCOC(=O)Nc1cccc(CON=C(c2cccc(F)c2)c2nc(=O)o[nH]2)n1` [Example 65]: in the data set on Phytophthora infestans, the pest or weed control at 500 ppm was found to be 100%. Further, the chromatographic logP in data set [1] turned out to be 2.94.

Take `Cn1oc(=O)nc1C(=NOCc1cccc(NC(=O)SC(C)(C)C)n1)c1ccccc1` [Example 39]: the pest or weed control at 500 ppm in the data set with Phytophthora infestans was 99%. The chromatographic logP in data set [1] is 3.73.

Take `C#CCCOC(=O)Nc1cccc(CON=C(c2cccc(OC)c2)c2nc(=O)on2C)n1` [Example 96]: the pest or weed control at 500 ppm in the data set with Phytophthora infestans is 90%. This molecule had a chromatographic logP in data set [1] of 2.75.

As for `CCCCCCC(=O)Nc1cccc(CON=C(c2cccc(F)c2)c2nc(=O)o[nH]2)n1` [Example 70], the pest or weed control at 500 ppm in the data set with Phytophthora infestans was determined as 80%. Also, the chromatographic logP in data set [1] worked out at 3.76.

Take `C#CCC(C)OC(=O)Nc1cccc(CON=C(c2cccc(F)c2)c2nc(=O)on2C)n1` (stereo not shown) [Example 99]: in the data set with Phytophthora infestans, the pest or weed control at 500 ppm was 100%. In data set [1], this molecule returned a chromatographic logP of 3.09.

For `Cn1oc(=O)nc1C(=NOCc1cccc(NC(=O)OC2CCCCC2)n1)c1ccccc1` [Example 26], the pest or weed control at 500 ppm with Phytophthora infestans came out at 99%. In data set [1], this molecule returned a chromatographic logP of 3.81.

On to `Cc1cccc(C(=O)Nc2cccc(CON=C(c3cccc(F)c3)c3nc(=O)o[nH]3)n2)c1` [Example 75], for which the pest or weed control at 500 ppm with Phytophthora infestans amounted to 98%. Further, in data set [1], the chromatographic logP was 3.35.

Turning to `CCCCCC(=O)Nc1cccc(CON=C(c2cccc(F)c2)c2nc(=O)o[nH]2)n1` [Example 68], in the data set with Phytophthora infestans, the pest or weed control at 500 ppm is 98%. Besides, in data set [1], the chromatographic logP came out at 3.37.
